Measured values: patent publication US20220347186A1, “METHODS AND COMPOSITIONS FOR TREATING SICKLE CELL DISEASE AND THALASSEMIA” (THE UNIVERSITY OF CHICAGO, priority 2019, published 2022)
“Also recorded” adds a separate entry of the source.

Key:
K562 cells [1] = test: RT-qPCR quantification of gene expression in K562 cells; type: cell-based, human; details: for HBB, HBG1/2 and HBE1 expression compared with JQ1: CPI-0610 reapplied daily, PLX51107 once at day 0
Protocol: (§1) K562, HEL, and HL-60 cells were cultured in RPMI 1640 medium supplemented with 10% FBS. TF-1 cells were cultured in RPMI 1640 medium supplemented with 10% FBS and 4 ng/mL GM-CSF. Before treatment, TF-1 cells were washed 4× with RPMI 1640 without supplements, and cultured in RPMI 1640 medium with 10% FBS but no GM-CSF for 24 hours. 4 ng/mL GM-CSF or 3 units/mL EPO were added at the time of treatment set up. K562, HEL, and HL-60 cells were cultured as normal until treatment set up. JQ1 (Sigma-Aldrich, SML1524), CPI-0610 (Selleck Chemicals, S7853), and PLX51107 (MedChemExpress, HY-111422) were dissolved in DMSO to 10 mM concentration and stored in −80° C. All three inhibitors were applied to cells at 200 nM, with parallel DMSO treatment (0.002%) as control. JQ1 and PLX51107 were added to cell culture at day 0 without additional treatments up to day 5. CPI-0610 was reapplied to the cells on a daily basis.
(§2) cDNA libraries for mRNAs were made from 1 μg input RNA using High-Capacity cDNA Reverse Transcription Kit (ThermoFisher, 4368814). Gene expressions were quantified using Power SYBR Green PCR Master Mix (Thermofisher, 4367659). For microRNAs, cDNA libraries were made with Taqman Advanced miRNA cDNA Synthesis Kit (Thermofisher, A28007). miR-15A and miR-16-1 were quantified using the Taqman Advanced miRNA Assays (ThermoFisher, A25576) specific to hsa-miR-15a-5p (assay ID: 477858_mir) and hsa-miR-16-5p (assay ID: 477860_mir).

TF-1 cells [2] = test: RT-qPCR quantification of gene expression in TF-1 cells; type: cell-based, human; details: for HBB, HBG1/2 and HBE1 expression compared with JQ1: CPI-0610 reapplied daily, PLX51107 once at day 0
Protocol: as §1, §2

[3] = Lifespan in culture medium; type: physicochemical
BET proteins = details: cited from earlier work; for Bromodomain preference (BD1 vs BD2): BET proteins; for Affinity among BET family members: BRD2/BRD3/BRD4/BRDT, literature refs 17, 18
K562 cells [4] = test: Cell growth and viability of K562 cells with BET inhibitor; type: cell-based; details: 200 nM vs DMSO control
Protocol: as §1

HEL cells [5] = test: Cell growth and viability of HEL cells with BET inhibitor; type: cell-based; details: 200 nM vs DMSO control, days 0-3
Protocol: as §1

K562 cells [6] = test: Benzidine-hematoxylin staining for hemoglobin producing cells; type: cell-based; details: 200 nM
Protocol: as §1
K562 cells were counted, and 200,000 cells were collected by spinning at 400 g. […]
At least three randomly selected fields of stained cells were imaged at 40× magnification. […] The numbers of benzidine-positive cells and the intensity of benzidine staining were quantified in the benzidine channel, whereas the total cell number and abnormal nuclear morphology were quantified in the hematoxylin channel. Results of all fields from each slide were summed for the final quantification.

HEL cells [7] = test: RT-qPCR quantification of hemoglobin gene expression in HEL cells; type: cell-based, human; details: 200 nM
Protocol: as §1, §2

HL-60 cells = test: RT-qPCR quantification of hemoglobin gene expression in HL-60 cells; type: cell-based, human; details: 200 nM
Protocol: as §1, with “CPI-0610 was reapplied to the cells on a daily basis.” left out
as §2

K562 cells [8] = test: RNA-seq gene expression in K562 cells; type: cell-based, human
Protocol: as §1
(§3) Sample RNA libraries were prepared using the KAPA mRNA HyperPrep Kit (Roche, KK8580) with 1 μg input RNA and submitted for sequencing. Raw reads in fastq format were aligned to the hg19 reference genome using HISAT2(38) with Gencode gene and transcript annotation (GRCh37.p13)(39). Gene expression was quantified and compared by tools in the Cuffliks package (40). GO analysis and term clustering was performed using g:Profiler and Cytoscape following the protocols published by Reimand et al (41).

TF-1 cells [9] = test: RNA-seq gene expression in TF-1 cells; type: cell-based, human
Protocol: as §1, §3

[10] = test system: β-globin locus in K562 cells; test: 3C-qPCR interaction frequency at the β-globin locus in K562 cells; type: cell-based, human
Protocol: as §1
Methods for chromatin conformation capture (3C) qPCR was adapted from Hagège et al. (42). Briefly, 10 million cells were collected and fixed with 1% formaldehyde for 5 minutes in PBS with 10% FBS for 5 minutes, then quenched by 124 mM glycine on ice. The fixed cells were then lysed and digested by 400 units of EcoRI (NEB, R3101). Small aliquots of the samples were taken before and after the digestion as digestion controls. Following the digestion, the samples were diluted and ligated by T4 DNA ligase (NEB, M0202). The samples were then reverse-crosslinked, and DNA was purified by phenol-chloroform extraction. The digestion efficiency, sample purity, and DNA concentration of each sample were assessed by qPCR to exclude low-quality samples prior to the 3C quantification. Calculated quantity of each primer pairs was normalized as number of templates per million B13 control site template. Additionally, because the Gg primer anneals to both HBG1 and HBG2 fragments, while the Ag primer anneals to only HBG2 fragment, the Gg primer signal was subtracted by Ag primer signal to quantify the HBG1 interaction frequency. […]

[11] = test system: β-globin locus in TF-1 cells; test: 3C-qPCR interaction frequency at the β-globin locus in TF-1 cells; type: cell-based, human
Protocol: as §1, with “JQ1 and PLX51107 were added to cell culture at day 0 without additional treatments up to day 5. CPI-0610 was reapplied to the cells on a daily basis.” left out
Methods for chromatin conformation capture (3C) qPCR was adapted from Hagège et al. (42). […] The digestion efficiency, sample purity, and DNA concentration of each sample were assessed by qPCR to exclude low-quality samples prior to the 3C quantification. Calculated quantity of each primer pairs was normalized as number of templates per million B13 control site template. Additionally, because the Gg primer anneals to both HBG1 and HBG2 fragments, while the Ag primer anneals to only HBG2 fragment, the Gg primer signal was subtracted by Ag primer signal to quantify the HBG1 interaction frequency. […]

GATA1 in K562 cells = test: Immunoprecipitation and quantification of total and acetyl-GATA1; type: cell-based; details: K562 nuclear lysate
Protocol: Nuclear protein was extracted according to previously described protocol (45). 10% of the nuclear protein extraction was saved as input. The remaining nuclear extract was diluted with non-denaturing IP buffer (20 mM Tris-HCl pH 8, 137 mM NaCl, 10% glycerol, 1% Triton X-100, 2 mM EDTA) and pre-cleared with normal rat IgG (Santa Cruz, sc2026) and Dynabeads Protein G (ThermoFisher, 10004D). Pre-cleared solutions were split into two equal portions, and 5 μg of anti-GATA1 antibody (Santa Cruz, sc266) or normal rat IgG were added to either portion and incubated overnight at 4° C. overnight. Antibodies were then pulled-down using Dynabeads Protein G, and washed 1× with the IP buffer and 2× with PBS containing 1% Triton X-100. The beads were boiled in 2× protein loading buffer to dissociate the proteins. Input and IP-ed proteins were ran on SDS-PAGE gels and transferred to PVDF membranes. The input samples were blotted using anti-topoisomerase 1 (Abcam, ab109374) and anti-GATA1 antibodies, and the IP-ed samples were blotted with anti-acetyl-lysine antibody (Abcam, ab21623). Quantification of signal intensity was done by ImageJ, and GATA1 and acetyl-GATA1 signals were normalized to the topoisomerase 1 signals in each sample.

K562 cells [12] = test: Sanger sequencing of HBG1/2 cDNA, HBG1 vs HBG2 ratio, K562 cells; type: cell-based, human; details: DMSO vs JQ1 treatment, sequencing peak heights
HEL cells [13] = test: Sanger sequencing of HBG1/2 cDNA, HBG1 vs HBG2 ratio, HEL cells; type: cell-based, human; details: DMSO vs JQ1 treatment, sequencing peak heights
[14] = TF-1 cells under proliferative condition, 200 nM
[15] = TF-1 cells, both proliferation and erythropoietic conditions

## Cc1noc2c1-c1ccccc1C(c1ccc(Cl)cc1)=N[C@H]2CC(N)=O [CPI-0610]
K562 cells [1]; 200 nM
  HBB, HBG1/2 and HBE1 expression compared with JQ1: mimic the effects of JQ1
TF-1 cells [2]; TF-1 cells, 200 nM
  HBB, HBG1/2 and HBE1 expression compared with JQ1: mimic the effects of JQ1
[3]
  Lifespan in culture medium: short lifespan
BET proteins
  Bromodomain preference (BD1 vs BD2): preference for the second bromodomain (BD2)
  Affinity among BET family members: comparable affinity

## Cc1sc2c(c1C)C(c1ccc(Cl)cc1)=N[C@@H](CC(=O)OC(C)(C)C)c1nnc(C)n1-2 [JQ1]
K562 cells [4]
  Cell growth: grow slower; also recorded: not significantly affected; also recorded: slightly suppresses cell growth, but this effect was not statistically significant; also recorded: slightly suppress cell growth, but this effect was not statistically significant
  Cell viability: unaffected; also recorded: not significantly affected; also recorded: did not affect cell viability
HEL cells [5]
  Cell growth: grow slower; also recorded: significantly suppress cell growth by Day 3
  Cell viability: unaffected; also recorded: did not affect cell viability
K562 cells [6]; day 3
  Percentage of hemoglobin producing cells (benzidine-hematoxylin staining): ~6%
K562 cells [6]; day 5
  Percentage of hemoglobin producing cells (benzidine-hematoxylin staining): over 10%
K562 cells [1]
  miR-15A expression: significantly upregulated
  miR-16-1 expression: significantly upregulated
K562 cells [1]; 200 nM, 5-day time course
  HBB expression: unaffected
  HBE1 expression: upregulated
  HBG1/2 expression: upregulated
K562 cells [1]; 200 nM, up to 4 days after the initial treatment
  MYC expression: consistently suppressed
K562 cells [1]; RT-qPCR
  BGLT3 expression increase: 6 fold
  HEMGN expression: significantly suppressed
  MYB expression: significantly suppressed
TF-1 cells [2]; TF-1 cells
  miR-15A expression: significantly upregulated
  miR-16-1 expression: significantly upregulated
TF-1 cells [2]; TF-1 cells treated with both EPO and JQ1
  HBB expression: significantly decreased
TF-1 cells [2]; TF-1 cells treated with both EPO and JQ1, day 5
  HBE1 expression increase: over 200 fold
TF-1 cells [2]; [14]
  HBB expression: not observed
TF-1 cells [2]; TF-1 cells, 200 nM, without EPO
  HBE1 expression: only upregulated
TF-1 cells [2]; TF-1 cells, RT-qPCR
  BCL11A expression: significantly suppressed
  MYB expression: significantly suppressed
TF-1 cells [2]; TF-1 cells, RT-qPCR, especially under erythropoietic condition
  HEMGN expression: significantly suppressed
TF-1 cells [2]; [15]
  Proportion of HBB transcripts relative to total β-globin transcripts: significantly decreased
  Proportion of HBE1 transcripts relative to total β-globin transcripts: increased
HEL cells [7]
  HBB expression: suppressing
  HBE1 expression: significantly upregulated
  HBG1/2 expression: significantly upregulated
HL-60 cells
  HBB, HBG1/2 and HBE1 expression: had no effect
K562 cells [8]; RNA-seq
  Expression of heme biosynthesis pathway genes, notably ALAS2: upregulated
  Expression of α- and β-globin hemoglobin genes: increased the expression of all α- and β-globin hemoglobin genes except HBB and HBD
  GATA1 expression: did not change
  HEMGN expression: significantly suppresses
  NR2F2 expression: did not change
K562 cells [8]; day 3 and day 5
  Differentiation (GO analysis of up- and down-regulated genes): specifically promotes erythroid, but not myeloid differentiation
K562 cells [8]; day 3 and day 5, JQ1 vs DMSO
  Transcriptome (gene expression) change: substantially changed the transcriptome
TF-1 cells [9]; TF-1 cells
  GATA1 expression: did not change
  HBA1/2 expression (α-globin locus): upregulated
  HBE1 expression (β-globin locus): specifically induced
  HEMGN expression: significantly suppresses
TF-1 cells [9]; TF-1 cells, erythropoietic condition
  KLF1 expression: slightly decreased
TF-1 cells [9]; TF-1 cells, especially under erythropoietic conditions
  ALAS2 expression: upregulated
TF-1 cells [9]; TF-1 cells, proliferative condition
  KLF1 expression: significantly suppressed
TF-1 cells [9]; proliferative TF-1 cells
  NR2F2 expression: significantly suppressed
[10]
  Interaction frequency of 5′BG (5′BGLT3 fragment) with the HBG1/2 region and the LCR: significantly increase
[10]; 72 hours of JQ1 treatment
  Increase in interaction frequency between the LCR and the HBG promoter region: over 2 fold
  Interaction frequency between the LCR and the rest of the β-globin locus: slight increases
[11]; both proliferative and erythropoietic conditions, 72 hours
  Interaction with LCR across the entire locus, except at the HBE1 promoter region: modest decrease
[11]; more prominent in the erythropoietic condition
  Interaction between 5′BG and upstream fragments: slight decrease
GATA1 in K562 cells; IP, anti-acetyl-lysine
  GATA1 acetylation: remained unchanged; also recorded: does not affect
GATA1 in K562 cells; normalized to TOP1
  Total GATA1 level: did not affect
K562 cells [12]
  Ratio of HBG1 vs. HBG2: no significant changes
HEL cells [13]
  Ratio of HBG1 vs. HBG2: no significant changes
BET proteins
  Affinity among BET family members: higher affinity for BRD3 and BRD4

## Cc1noc(C)c1-c1cnc2c(-c3ccc(C(=O)O)cc3)cn([C@@H](C)c3ccccn3)c2c1 [PLX51107]
K562 cells [1]; 200 nM
  HBB, HBG1/2 and HBE1 expression compared with JQ1: mimic the effects of JQ1
TF-1 cells [2]; [14]
  HBB expression: significantly suppressed
TF-1 cells [2]; TF-1 cells, 200 nM
  HBB, HBG1/2 and HBE1 expression compared with JQ1: mimic the effects of JQ1
BET proteins
  Bromodomain preference (BD1 vs BD2): preferentially binds to BD1
  Affinity among BET family members: somewhat lower affinity for BRDT
